What was measured:
SH-SY5Y cells = assay: MPP+-induced SH-SY5Y cell death, cell viability by crystal violet assay; assay type: cell-based; conditions: MPP+ 2 mM, DMEM/F12 (20% FBS), 37° C., 24 h
Experimental: The effects of GSSSG on 1-methyl-4-phenylpyridinium (MPP+)-induced neuronal (SH-SY5Y cell) death were evaluated. MPP+-poisoning is an in vitro model of Parkinson's disease.
SH-SY5Y cells were incubated with or without MPP+ (2 mM) in DMEM/F12 (20% FBS) with or without drugs at 37° C. for 24 h. Cell viability was measured using the crystal violet assay.

mice subjected to SCI = assay: Murine model of spinal cord ischemia (SCI) with delayed paraplegia; motor function by Basso Mouse Scale and survival after preconditioning; assay type: in vivo; conditions: preconditioning 200 mg/kg IP daily for 4 days in DMSO, vs DMSO alone
Experimental: Briefly, under anesthesia and mechanical ventilation via endotracheal intubation, SCI was induced by placing the first clip on the aortic arch between the left common carotid artery and the left subclavian artery and the second clip on the origin of the left subclavian artery. The completeness of the occlusion was ascertained by an immediate and sustained loss of any detectable pulse pressure in the femoral artery pressure tracing. After 5 min of ischemia, the clips were removed, and the chest was closed in layers. At 10 minutes of reperfusion, the arterial catheter was removed, incisions were closed, and animals were allowed to recover from anesthesia. Temperature of erector spinae muscle was monitored and maintained at 37.5° C. during whole surgery until recovery from anesthesia. In sham-operated mice, whole surgical procedure was performed as described, but no clips were applied. Motor function was quantified serially at pre-SCI, 24, 48, and 72 h after spinal cord ischemia by the Basso Mouse Scale (BMS) (Basso et al., 2006; Kakinohana et al., 2011). The maximum deficit is indicated by a score of 0. Although BMS score<6 (0 to 5) indicates paraplegia, BMS score>6 (6 to 9) indicates ability to walk.
To examine preventive effects of GSSSG against neurofunctional deficit after SCI, mice were subjected to preconditioning with GSSSG treatment before induction of SCI. […]

Structure (SMILES): N[C@@H](CCC(=O)N[C@@H](CSSSC[C@H](NC(=O)CC[C@H](N)C(=O)O)C(=O)NCC(=O)O)C(=O)NCC(=O)O)C(=O)O [GSSSG, Glutathione trisulfide]
- Protection from MPP+-induced cell death (cell viability) (SH-SY5Y cells): protective effect
- Motor function (Basso Mouse Scale, BMS) / paraplegia after SCI (mice subjected to SCI; SCI 24 h after last administration, BMS up to 72 h): prevented motor functional deficit and paraplegia
- Survival rate of mice after SCI (mice subjected to SCI): did not change survival rate

Structure (SMILES): [Na+].[Na+].[S-2] [Na2S, reference compound]
- Protection from MPP+-induced cell death (cell viability) (SH-SY5Y cells): but not Na2S, protected

— US12582693B2, “Glutathione trisulfide (GSSSG) in neuroprotection” (The General Hospital Corporation, priority 2020, dated 2026)
